The source of these data is US4495101A, “Antiinflammatory 5H-tetrazolo (5,1-c)(1,4)benzodiazepine derivatives” (American Home Products Corporation, priority 1983, dated 1985).

Molecules are shown by their SMILES.

This experiment deals with carrageenan-induced paw edema. As to the kind of experiment: rat carrageenan edema test (paw volume, mercury plethysmography). The settings on record: 150 mg/kg oral, one hour prior to 1% carrageenan, read three hours after carrageenan, vs control, *p ≤ 0.05, **p ≤ 0.01. The experiment is classed as in vivo, male Sprague-Dawley or Charles River rats. Here is the method:
The anti-inflammatory activity of the claimed compounds was established by direct measurement of the effect of structurally representative compounds in the rat carrageenan edema test. This standard pharmacological procedure for determining antiinflammatory effects of a compound is performed by subcutaneous injection in the right paw of 6 animals (140-180 grams, male Sprague-Dawley or Charles River rats) with 0.1 milliliter of 1 percent carrageenan at zero time. The compounds representative of this invention are administered orally one hour prior to carrageenan at 150 milligrams per kilogram. The paw volume (edema in milliliters) is determined at zero time and three hours after carrageenan administration by mercury plethysmographic readings (milliliter) of the paw. From the change in paw volume compared to control, the percent inhibition of edema is determined. The results obtained with the compounds of Examples 1, 9, 17 and 18, which are representative of the other compounds of the invention, are as follows: […]
`O=C1Nc2ccc(Cl)cc2Cn2nnnc21` [Example 1, 7-Chloro-5,10-dihydro-11H-tetrazolo[5,1-c][1,4]-benzodiazepine-11-one]: the “% Inhibition of Edema” value is given as 39%. Consider `S=C1Nc2ccc(Cl)cc2Cn2nnnc21` [Example 9, 5,10-Dihydro-7-Chloro-11H-tetrazolo[5,1-c][1,4]-benzodiazepine-11-thione], for which the “% Inhibition of Edema” value is on record as 42%. `CN1CCN(C2=Nc3cc(Cl)ccc3Cn3nnnc32)CC1` [Example 17, 8-Chloro-11-(4-methyl-1-piperazinyl)-5H-tetrazolo[5,1-c][1,4]benzodiazepine]: the “% Inhibition of Edema” value is recorded as 42%. The value for `Cc1ccc2c(c1)Cn1nnnc1C(N1CCN(C)CC1)=N2` [Example 18, 7-Methyl-11-(4-methyl-1-piperazinyl)-5H-tetrazolo[5,1-c][1,4]benzodiazepine] was 33%.
